Where only a bound is given, the exact number is not on record here.

This test deals with T1, human recombinant HPK1 (Homo sapiens, UniProt Q92918).
T1 construct: purchased BPS Bioscience
T1 sequence (Q92918 whole entry): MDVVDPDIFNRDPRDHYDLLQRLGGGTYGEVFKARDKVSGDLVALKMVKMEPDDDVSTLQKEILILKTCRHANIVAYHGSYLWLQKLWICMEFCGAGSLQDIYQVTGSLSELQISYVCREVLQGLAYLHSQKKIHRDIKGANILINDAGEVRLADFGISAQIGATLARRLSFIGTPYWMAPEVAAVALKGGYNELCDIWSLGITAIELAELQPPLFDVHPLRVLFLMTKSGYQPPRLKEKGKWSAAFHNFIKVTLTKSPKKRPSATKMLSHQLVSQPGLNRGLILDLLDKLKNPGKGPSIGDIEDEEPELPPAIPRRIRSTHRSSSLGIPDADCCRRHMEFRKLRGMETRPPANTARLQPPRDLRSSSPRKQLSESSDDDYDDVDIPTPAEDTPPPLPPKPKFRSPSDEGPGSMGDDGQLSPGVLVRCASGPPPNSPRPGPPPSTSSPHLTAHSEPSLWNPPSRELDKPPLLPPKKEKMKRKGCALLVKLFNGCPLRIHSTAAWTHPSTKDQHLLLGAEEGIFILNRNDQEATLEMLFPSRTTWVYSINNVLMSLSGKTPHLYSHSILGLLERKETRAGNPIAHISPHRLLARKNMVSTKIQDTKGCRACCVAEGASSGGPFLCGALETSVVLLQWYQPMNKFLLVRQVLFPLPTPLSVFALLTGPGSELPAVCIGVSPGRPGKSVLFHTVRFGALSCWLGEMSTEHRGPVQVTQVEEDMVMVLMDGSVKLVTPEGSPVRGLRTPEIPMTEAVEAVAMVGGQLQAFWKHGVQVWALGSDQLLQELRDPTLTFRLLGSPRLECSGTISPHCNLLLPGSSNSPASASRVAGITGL
The test is described as follows: Inhibitory activity against human recombinant HPK1 (TR-FRET). The test is classed as biochemical. To be noted: ULight-p70S6K peptide, ATP at Km, room temperature, 1 hour, 0.32 to 1000 nM compound. The protocol:
Test Example: Evaluation of Inhibitory Activity Against Human Recombinant HPK1
The inhibitory activity against human recombinant HPK1 was evaluated using the Time-Resolved Fluorescence Resonance Energy Transfer (TR-FRET) technology of Perkin-Elmer. The test compound was prepared as a 20 mM stock solution with dimethyl sulfoxide (DMSO), serially diluted in a buffer solution, and used at final compound concentrations of 0.32 to 1000 nM. The evaluation of inhibitory activity was carried out at room temperature, using recombinant human HPK1 (BPS Bioscience). Briefly, recombinant human HPK1, serially diluted each test compound, ULight-p70S6K peptide substrate (PerkinElmer), and ATP at each concentration (Km and final concentration) were added to a kinase buffer solution (50 mM HEPES pH 7.4, 10 mM MgCl2, 1 mM EGTA, 3 mM MnCl2, 2 mM DTT, and 0.01% Tween-20). The resulting mixture was added to each well of a 384-well plate (Optiplate™ 384, white, PerkinElmer). The enzyme reaction was carried out at room temperature for 1 hour. After the reaction was suspended by adding 4 μL of a stop solution (10 mM EDTA) thereto, the mixture was stirred for 1 minute and then a detection solution containing Europium-labeled anti-phosphopeptide antibody (final concentration: 2 nM, PerkinElmer) was added thereto. The signals of TR-FRET at excitation wavelength (320 nm) and emission wavelength (665 nm) were detected using a microplate reader (Envision Multilabel Reader, Perkin-Elmer). Inhibition by the test compound was measured as % inhibition in the signals, compared to the control group treated with DMSO only. The IC50 value of each compound was calculated using the GraphPad Prism program (GraphPad Software, Inc., San Diego, CA, USA). The IC50 values of test compounds for inhibitory activity against HPK1 were classified as follows: • A: IC50≤10 nM • B: 10 nM<IC50≤50 nM • C: 50 nM<IC50≤100 nM • D: IC50>100 nM
On to `COc1ccc(F)c(F)c1-c1nccc(Nc2cc(N3CCC[C@H](O)C3)c(-c3cnn(C4CCOCC4)c3)cn2)n1` [Example 24, (S)-1-(2-((2-(2,3-difluoro-6-methoxyphenyl)pyrimidin-4-yl)amino)-5-(1-(tetrahydro-2H-pyran-4-yl)-1H-pyrazol-4-yl)pyridin-4-yl)piperidin-3-ol], for which the IC50 is ≤ 10 nM.
With `CCOc1cccc(F)c1-c1nccc(Nc2cc(N3CCC[C@H](O)C3)c(-c3cnn(C4CCOCC4)c3)cn2)n1` [Example 25, (S)-1-(2-((2-(2-ethoxy-6-fluorophenyl)pyrimidin-4-yl)amino)-5-(1-(tetrahydro-2H-pyran-4-yl)-1H-pyrazol-4-yl)pyridin-4-yl)piperidin-3-ol], the IC50 lay within 10 to 50 nM.
In the case of `O[C@H]1CCCN(c2cc(Nc3ccnc(-c4ccn5ncnc5c4)n3)ncc2-c2cnn(C3CCOCC3)c2)C1` [Example 26, (S)-1-(2-((2-([1,2,4]triazolo[1,5-a]pyridin-7-yl)pyrimidin-4-yl)amino)-5-(1-(tetrahydro-2H-pyran-4-yl)-1H-pyrazol-4-yl)pyridin-4-yl)piperidin-3-ol], the IC50 was 50 to 100 nM.
As for `O[C@H]1CCCN(c2cc(Nc3ccnc(-c4cnn5ccccc45)n3)ncc2-c2cnn(C3CCOCC3)c2)C1` [Example 27, (S)-1-(2-((2-(pyrazolo[1,5-a]pyridin-3-yl)pyrimidin-4-yl)amino)-5-(1-(tetrahydro-2H-pyran-4-yl)-1H-pyrazol-4-yl)pyridin-4-yl)piperidin-3-ol], the IC50 is 10 to 50 nM.
On to `O[C@H]1CCCN(c2cc(Nc3ccnc(-c4ccc5nccnc5c4)n3)ncc2-c2cnn(C3CCOCC3)c2)C1` [Example 28, (S)-1-(2-((2-(quinoxalin-6-yl)pyrimidin-4-yl)amino)-5-(1-(tetrahydro-2H-pyran-4-yl)-1H-pyrazol-4-yl)pyridin-4-yl)piperidin-3-ol], for which the IC50 lay in the range of 10 to 50 nM.
As to `O[C@H]1CCCN(c2cc(Nc3ccnc(-c4ccc5cccnc5c4F)n3)ncc2-c2cnn(C3CCOCC3)c2)C1` [Example 29, (S)-1-(2-((2-(8-fluoroquinolin-7-yl)pyrimidin-4-yl)amino)-5-(1-(tetrahydro-2H-pyran-4-yl)-1H-pyrazol-4-yl)pyridin-4-yl)piperidin-3-ol], the half-maximal inhibitory concentration (IC50) was ≤ 10 nM.
Take `COc1cccc(F)c1-c1nccc(Nc2cc(N3CCC[C@H](O)C3)c(-c3ccc(CN4CCN(C)CC4)nc3)cn2)n1` [Example 30, (S)-1-(6-((2-(2-fluoro-6-methoxyphenyl)pyrimidin-4-yl)amino)-6′-((4-methylpiperazin-1-yl)methyl)-[3,3′-bipyridin]-4-yl)piperidin-3-ol]: the IC50 lay within 10 to 50 nM.
With `COc1cccc(F)c1-c1nccc(Nc2cc(N3CCC[C@H](O)C3)c(-c3ccc(C4CCOCC4)nc3)cn2)n1` [Example 31, (S)-1-(6-((2-(2-fluoro-6-methoxyphenyl)pyrimidin-4-yl)amino)-6′-(tetrahydro-2H-pyran-4-yl)-[3,3′-bipyridin]-4-yl)piperidin-3-ol], the IC50 is ≤ 10 nM.
Then `COc1cccc(F)c1-c1nccc(Nc2cc(N3CCC[C@H](O)C3)c(-c3ccc(CN4CCOCC4)nc3)cn2)n1` [Example 32, (S)-1-(6-((2-(2-fluoro-6-methoxyphenyl)pyrimidin-4-yl)amino)-6′-(morpholinomethyl)-[3,3′-bipyridin]-4-yl)piperidin-3-ol], with 10 to 50 nM; and `COc1cccc(F)c1-c1nccc(Nc2cc(N3CCC[C@H](O)C3)c(-c3ccc(CN4CCC(O)CC4)nc3)cn2)n1` [Example 33, (S)-1-(6-((2-(2-fluoro-6-methoxyphenyl)pyrimidin-4-yl)amino)-6′-((4-hydroxypiperidin-1-yl)methyl)-[3,3′-bipyridin]-4-yl)piperidin-3-ol], with 10 to 50 nM.
Then `COc1cccc(F)c1-c1nccc(Nc2cc(N3CCCC(C(N)=O)C3)c(-c3cnn(C4CCOCC4)c3)cn2)n1` (centres unmarked) [Example 34, 1-(2-((2-(2-fluoro-6-methoxyphenyl)pyrimidin-4-yl)amino)-5-(1-(tetrahydro-2H-pyran-4-yl)-1H-pyrazol-4-yl)pyridin-4-yl)piperidin-3-carboxamide], with 10 to 50 nM; and `COc1cccc(F)c1-c1cccc(Nc2cc(N3CCC[C@H](O)C3)c(-c3cnn(C4CCOCC4)c3)cn2)n1` [Example 35, (S)-1-(2-((6-(2-fluoro-6-methoxyphenyl)pyridin-2-yl)amino)-5-(1-(tetrahydro-2H-pyran-4-yl)-1H-pyrazol-4-yl)pyridin-4-yl)piperidin-3-ol], with ≤ 10 nM; and `COc1cccc(F)c1-c1nccc(Nc2cc(N3CCC[C@H](O)C3)c(-c3ccc(C(=O)N4CCN(C)CC4)nc3)cn2)n1` [Example 36, (S)-(6′-((2-(2-fluoro-6-methoxyphenyl)pyrimidin-4-yl)amino)-4′-(3-hydroxypiperidin-1-yl)-[3,3′-bipyridin]-6-yl)(4-methylpiperazin-1-yl)methanone], with ≤ 10 nM.
In the case of `COc1cccc(F)c1-c1nccc(Nc2cc(N3CCC[C@H](O)C3)c(-c3ccc(C(=O)N4CCOCC4)nc3)cn2)n1` [Example 37, (S)-(6′-((2-(2-fluoro-6-methoxyphenyl)pyrimidin-4-yl)amino)-4′-(3-hydroxypiperidin-1-yl)-[3,3′-bipyridin]-6-yl)(morpholino)methanone], the IC50 fell in the range of 10 to 50 nM.
In the case of `COc1cccc(F)c1-c1nccc(Nc2cc(N3CCC[C@H](O)C3)c(-c3ccc(C(=O)N4CCC(O)CC4)nc3)cn2)n1` [Example 38, (S)-(6′-((2-(2-fluoro-6-methoxyphenyl)pyrimidin-4-yl)amino)-4′-(3-hydroxypiperidin-1-yl)-[3,3′-bipyridin]-6-yl)(4-hydroxypiperidin-1-yl)methanone], the IC50 was ≤ 10 nM.
On to `COc1cccc(F)c1-c1nccc(Nc2cc(N3CCC[C@H](O)C3)c(-c3ccc(CN4CC[C@H](F)C4)nc3)cn2)n1` [Example 39, (S)-1-(6-((2-(2-fluoro-6-methoxyphenyl)pyrimidin-4-yl)amino)-6′-(((S)-3-fluoropyrrolidin-1-yl)methyl)-[3,3′-bipyridin]-4-yl)piperidin-3-ol], for which the IC50 was ≤ 10 nM.
To `COc1cccc(F)c1-c1nc(Nc2cc(N3CCC[C@H](O)C3)c(-c3cnn(C4CCOCC4)c3)cn2)ccc1F` [Example 40, (3S)-1-(2-((5-fluoro-6-(2-fluoro-6-methoxyphenyl)pyridin-2-yl)amino)-5-(1-(tetrahydro-2H-pyran-4-yl)-1H-pyrazol-4-yl)pyridin-4-yl)piperidin-3-ol] belongs ≤ 10 nM; to `COc1cccc(F)c1-c1nc(Nc2cc(N3CCC[C@H](O)C3)c(-c3cnn(C4CCOCC4)c3)cn2)ccc1[N+](=O)[O-]` [Example 41, (3S)-1-(2-((6-(2-fluoro-6-methoxyphenyl)-5-nitropyridin-2-yl)amino)-5-(1-(tetrahydro-2H-pyran-4-yl)-1H-pyrazol-4-yl)pyridin-4-yl)piperidin-3-ol], ≤ 10 nM.
With `COc1cccc(F)c1-c1nccc(Nc2cc(N3CCC[C@H](O)C3)c(-c3cccnc3)cn2)n1` [Example 42, (S)-1-(6-((2-(2-fluoro-6-methoxyphenyl)pyrimidin-4-yl)amino)-[3,3′-bipyridin]-4-yl)piperidin-3-ol], the IC50 fell in the range of 10 to 50 nM.
For the compound `COc1cccc(F)c1-c1nccc(Nc2cc(N3CCC[C@H](O)C3)c(-c3ccc(CN4CCC(O)C4)nc3)cn2)n1` (stereo partly drawn) [Example 43, (3S)-1-(6-((2-(2-fluoro-6-methoxyphenyl)pyrimidin-4-yl)amino)-6′-((3-hydroxypyrrolidin-1-yl)methyl)-[3,3′-bipyridin]-4-yl)piperidin-3-ol], the IC50 was ≤ 10 nM.
To `COc1cccc(F)c1-c1nccc(Nc2cc(N3CCC(N(C)C)C3)c(-c3cnn(C4CCOCC4)c3)cn2)n1` (centres unmarked) [Example 44, N-(4-(3-(dimethylamino)pyrrolidin-1-yl)-5-(1-(tetrahydro-2H-pyran-4-yl)-1H-pyrazol-4-yl)pyridin-2-yl)-2-(2-fluoro-6-methoxyphenyl)pyrimidin-4-amine] belongs 10 to 50 nM; to `COc1cccc(F)c1-c1nccc(Nc2cc(N3CCC(C)(CO)C3)c(-c3cnn(C4CCOCC4)c3)cn2)n1` (centres unmarked) [Example 45, (1-(2-((2-(2-fluoro-6-methoxyphenyl)pyrimidin-4-yl)amino)-5-(1-(tetrahydro-2H-pyran-4-yl)-1H-pyrazol-4-yl)pyridin-4-yl)-3-methylpyrrolidin-3-yl)methanol], > 100 nM.
Regarding `COc1cccc(F)c1-c1nccc(Nc2cc(N3CCC(F)(CN(C)C)CC3)c(-c3cnn(C4CCOCC4)c3)cn2)n1` [Example 46, N-(4-(4-((dimethylamino)methyl)-4-fluoropiperidin-1-yl)-5-(1-(tetrahydro-2H-pyran-4-yl)-1H-pyrazol-4-yl)pyridin-2-yl)-2-(2-fluoro-6-methoxyphenyl)pyrimidin-4-amine], the IC50 was ≤ 10 nM.

The values are drawn from patent US20260347338A1, “PYRIMIDINE/PYRIDINE DERIVATIVES OR SALTS THEREOF AND PHARMACEUTICAL COMPOSITIONS COMPRISING THE SAME” (YUHAN CORPORATION, priority 2023, published 2026).
